This assay relates to Human AML cell line MV-4-11 (FLT3-ITD positive and wild type TP53 gene). In words: Human MV-4-11 AML subcutaneous mouse xenograft model. The conditions noted are these: MV-4-11 subcutaneous xenograft, Compound 23 10 mg/kg, Compound C 30 mg/kg. Type of assay: in vivo. As for the experimental part:
The formulation of Compound C was prepared as homogenous suspension in 0.2% HPMC using a mortar. The drug suspension was prepared every three days or once a week and placed at 4° C. when not in use. Before use, the drug suspension was placed at room temperature and shaken to mix well. The formulation of Compound C was administered to mice via p.o. in a volume of 10 mL/kg. […] The drug suspension was prepared once every other day and placed at 4° C. when not in use. Before use, the drug suspension was placed at room temperature and shaken well. […] MV-4-11 cells (Human AML cell line MV-4-11 (FLT3-ITD positive and wild type TP53 gene)) were maintained in IMDM (Cat. C12440500BT, GIBCO), with 10% fetal bovine serum (Cat. 10099-141, GIBCO), 1% L-glutamine, 100 U/mL penicillin G and 100 μg/mL streptomycin (Cat. GNM15140, Hangzhou Geno Biomedical Technology Co., Ltd). Cells were incubated at 37° C. in a humidified incubator with 5% CO2. Six to eight weeks old, female, NOD SCID and BALB/c nude mice were used. Animals were obtained from Vital River Laboratories (VRL, Beijing, China, license number SCXK(J) 2012-0001 and SCXK(J) 2016-0006). The body weights were 17-24 g. Randomization was conducted when the size of xenograft tumors reached 100-150 mm^3. Based on the size of the tumor and body weight, animals were randomly assigned into experimental groups. […] MV-4-11 subcutaneous xenograft models were established by subcutaneously injecting tumor cells (1×10^7 cells (50% Matrigel)/mouse) into the right flank of the mouse under the sterile condition. When the tumors reached an appropriate size (100-200 mm^3), mice were randomized into 6 mice per group and treatment was initiated (day 1) according to Table 4. [table] The tumors sizes and animal body weights were measured twice a week. Tumor volumes were estimated from measurements of two diameters of the individual tumors as follows: Tumor Volume (mm^3)=(a×b^2)/2 Relative tumor volume (RTV) were calculated according to the follows: RTV=Vt/V1 where V1 and Vt were respectively the average tumor volume on the first day of treatment (day 1) and the average tumor volume on a certain time point (day T). Standard NCI procedures were used to calculate tumor parameters (Teicher, B. A. (2011). “Tumor Models in Cancer Research.” Second Edition, Human Press). Percent tumor growth inhibition (% T/C) was calculated as the mean RTV of treated tumors (T) divided by the mean RTV of control tumors (C)×100%. […] A body weight loss (mean of group) of greater than 20%, or greater than 20% of drug deaths are considered to indicate an excessively toxic dosage. The synergistic analysis was performed using the following formula described in Clarke R. Issues in experimental design and endpoint analysis in the study of experimental cytotoxic agents in vivo in breast cancer and other models[J]. Breast Cancer Research & Treatment, 1997, 46(2-3):255-278, which is incorporated by reference in its entirety: expected value=(A/C)×(B/C); actual value=(AB)/C; A: RTV of drug A; B: RTV of drug B; C=RTV of the vehicle control group; AB=RTV of the combination group. Ratio=expected/actual value. […] A ratio=1 indicates the two drugs have additive effects. A ratio <1 indicates the two drugs may have antagonist effects. According to the earlier publication (Gao, H., et al. (2015). “High-throughput screening using patient-derived tumor xenografts to predict clinical trial drug response” Nat Med 21: 1318), additional measurements of response included stable disease (SD), partial tumor regression (PR), and complete regression (CR) were determined by comparing tumor volume change at day t to its baseline: tumor volume change (%)=(Vt−V1)/V1. […] For each time t, the average of tumor volume change from t=1 to t was also calculated. […]

The results in this text go back to patent publication US12233047B2, “Pharmaceutical combination and use thereof” (ASCENTAGE PHARMA (SUZHOU) CO., LTD., priority 2019, dated 2025).

Molecules are shown by their SMILES.

As for `Cc1ccc(C(=O)Nc2ccc(CN3CCN(C)CC3)c(C(F)(F)F)c2)cc1C#Cc1cnc2[nH]ncc2c1` [Compound 23, 3-(2-(1H-pyrazolo[3,4-b]pyridin-5-yl)ethynyl)-4-methyl-N-(4-((4-methylpiperazin-1-yl)methyl)-3-(trifluoromethyl)phenyl)benzamide], the “Tumor weight on D 22 (Mean ± SEM)” value (day 22, p.o. q2d × 22 d, vehicle 2.29 ± 0.29, in g (unit assumed)) was determined as 0.67 ± 0.11. Also, the “T/C(%)@D 22” value (mean RTV treated/control, day 22, p.o. q2d) is recorded as 28.6%. Besides, the “RTV@D 22” value (relative tumor volume day 22, p.o. q2d, vehicle 18.2 ± 3.3) amounted to 5.2 ± 0.9.
